Measured values as given in patent US8354398B2, “Substituted isoxazole compounds” (Bristol-Myers Squibb Company, priority 2009, dated 2013).

Legend:
S1P3 [1] = target: T1, S1P3 (Homo sapiens, UniProt Q99500); assay: Method B: Receptor [35S] GTPγS SPA Binding Assay, membranes from S1P3 transfected CHO cells; assay type: biochemical; design: expressed in transfected cells; host or cells: CHO cells; details: S1P3 transfected CHO cell membranes, NC = a satisfactory dose response curve was not obtained
Procedure: (§1) Membranes prepared from S1P1 or S1P3 transfected CHO cells (2 μg protein) were incubated in 96-well white plates (CORNING® 3693) with test compounds diluted in DMSO, in 50 μl of reaction mixture containing 7.5 μl WGA-PVT beads (20 mg/ml), and 5 μM GDP, 20 mM HEPES pH 7.4, 100 mM NaCl, 1 mM EDTA, 5 mM MgCl2, 10 μg/ml saponin, 0.1% BSA, and 1 μM leupeptin. The assay was initiated with the addition of 25 μl of 0.2 nM [^35S]-GTPγS (1250 Ci/mmol; NEN) in assay buffer. After 90 min incubation at room temperature, spin the plate at 1000 rpm for 5 min. The bound radionuclides were measured at TOPCOUNT®, expressed as % response relative to S1P (1 μM) activation. Data was analyzed using the four parameter logistic equation in Excel. The four parameters in the equation, Y=A+((B−A)/(1+((EC50/X)^D))), are described as following: A is the Y value (agonist activity) at the bottom plateau; B is the Y value at the top plateau; EC50 is the X value (agonist concentration) when the response is halfway between bottom and top; D is Hill coefficient. Curves were not generated for compounds having Ymax values were below 50%.
(§2) Compounds of the present invention and Comparative Compound A were tested in the Receptor [^35S] GTPγS Binding Assays (Method A) and Receptor [35S] In some instances, the value is an average of multiple experiments where N is the number of experiments conducted that provided satisfactory dose response curves. When more than one batch of an example was tested, the value presented is from a batch which allowed a comparison of GTPγS S1P1 and GTPγS S1P3 in which the most number of experiments were performed. Preferably, the same batch was examined in Method A and Method B. Data was not averaged across different batches of an example compound.
Target sequence in this assay (Q99500 whole entry, species assumed): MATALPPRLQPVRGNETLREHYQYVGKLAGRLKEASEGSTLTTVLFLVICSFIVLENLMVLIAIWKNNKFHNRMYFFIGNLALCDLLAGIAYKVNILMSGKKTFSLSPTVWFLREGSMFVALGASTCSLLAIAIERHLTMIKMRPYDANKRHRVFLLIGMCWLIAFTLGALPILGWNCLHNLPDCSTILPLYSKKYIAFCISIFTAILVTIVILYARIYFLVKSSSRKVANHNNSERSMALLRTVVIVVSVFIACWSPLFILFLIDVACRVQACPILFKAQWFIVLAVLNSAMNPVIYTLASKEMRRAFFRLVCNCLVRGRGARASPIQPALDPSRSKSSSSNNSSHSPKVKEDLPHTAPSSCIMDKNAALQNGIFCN

S1P3 [2] = target: T1, S1P3; assay: Method A: Receptor [35S] GTPγS Binding Assay, membranes from EDG3-Ga15-bla HEK293T cells; assay type: biochemical; design: expressed in transfected cells; host or cells: EDG3-Ga15-bla HEK293T cells; details: EDG3-Ga15-bla HEK293T cell membranes
Procedure: (§3) Compounds were loaded in a 384 Falcon v-bottom plate (0.5 μl/well in a 3-fold dilution). Membranes prepared from S1P1/CHO cells or EDG3-Ga15-bla HEK293T cells were added to the compound plate (40 μl/well, final protein […]) with MULTIDROP®. [^35S]GTP (1250 Ci/mmol, Perkin Elmer) was diluted in assay buffer: 20 mM HEPES, pH7.5, 10 mM MgCl2, 150 mM NaCl, 1 mM EGTA, 1 mM DTT, 10 μM GDP, 0.1% fatty acid free BSA, and 10 mg/ml Saponin to 0.4 nM. 40 μl of the [^35S] GTP solution was added to the compound plate with a final concentration of 0.2 nM. The reaction was kept at room temperature for 45 min. At the end of incubation, all the mixtures in the compound plate were transferred to a 384 well FB filter plates via GPCR robot system. The filter plate was washed with water 4 times by using the modified manifold Embla plate washer and dried at 60° C. for 45 min. 30 μl of MicroScint 20 scintillation fluid was added to each well for counting at Packard TOPCOUNT®. EC50 is defined as the agonist concentration that corresponds to 50% of the Ymax (maximal response) obtained for each individual compound tested.
as §2
Target sequence in this assay (Q99500 whole entry): as the sequence (Q99500 whole entry, species assumed) above

circulating lymphocytes [3] = assay: Blood Lymphocyte Reduction Assay (BLR) in rats; assay type: in vivo; details: Lewis rats, oral, vs vehicle group
Procedure: (§4) Lewis rats or BALB/c mice were dosed orally with test article (as a solution or suspension in the vehicle) or vehicle alone (polyethylene glycol 300, “PEG300”). Blood was drawn at 4 hr and 24 h by retro-orbital bleeding. Blood lymphocyte counts were determined on an ADVIA® 120 Hematology Analyzer (Siemens Healthcare Diagnostics). The results were measured as a reduction in the percentage of circulating lymphocytes as compared to the vehicle treated group at the 4 hr and 24 hr measurement. The results represent the average results of all animals within each treatment group (n=3-4).
(§5) Examples 1 and 2 were tested in the Blood Lymphocyte Reduction assay (BLR) described hereinabove and the results are shown in Table D for rats and Table E for mice.

S1P1 [4] = target: T2, S1P1 (Homo sapiens, UniProt P21453); assay: Method A: Receptor [35S] GTPγS Binding Assay, membranes from S1P1/CHO cells; assay type: biochemical; design: expressed in transfected cells; host or cells: S1P1/CHO cells
Procedure: as §3, §2

circulating lymphocytes [5] = assay: Blood Lymphocyte Reduction Assay (BLR) in mice; assay type: in vivo; details: BALB/c mice, oral, vs vehicle group
Procedure: as §4, §5

S1P1 [6] = target: T2, S1P1; assay: Method B: Receptor [35S] GTPγS SPA Binding Assay, membranes from S1P1 transfected CHO cells; assay type: biochemical; design: expressed in transfected cells; host or cells: S1P1/CHO cells
Procedure: as §1, §2

S1P1 [7] = target: T2, S1P1; assay: S1P1 Binding Assay (33P-S1P ligand competition, membranes from CHO cells); design: expressed in transfected cells; host or cells: CHO cells; details: membranes of CHO cells expressing human S1P1; 0.03 nM 33P-S1P; 60 min room temperature
Procedure: Membranes were prepared from CHO cells expressing human S1P1. Cells were dissociated in buffer containing 20 mM HEPES, pH 7.5, 50 mM NaCl, 2 mM EDTA and Protease Inhibitor cocktail (Roche), and disrupted on ice using the Polytron homogenizer. The homogenate was centrifuged at 20,000 rpm (48,000 g) and the supernatant was discarded. The membrane pellets were resuspended in buffer containing 50 mM HEPES, pH 7.5, 100 mM NaCl, 1 mM MgCl2, 2 mM EDTA and stored in aliquots at −80° C. after protein concentration determination.
Membranes (2 μg/well) and 0.03 nM final concentration of ^33P-S1P ligand (1 mCi/ml, American Radiolabeled Chemicals) were added to the compound plates. Binding was performed for 60 min at room temperature, terminated by collecting the membranes onto GF/B filter plates, and radioactivity was measured by TOPCOUNT®. The competition data of the test compounds over a range of concentrations was plotted as percentage inhibition of radioligand specific binding. The IC50 is defined as the concentration of competing ligand needed to reduce specific binding by 50%.
Compounds of the present invention and Comparative Compound A were tested in the S1P1 binding assay described hereinabove and the results rounded to two digits, shown in Table A were obtained. In some instances, the value is an average of multiple experiments where N is the number of experiments conducted that provided satisfactory dose response curves. When more than one batch of an example was tested, the value presented is from the batch which allowed a comparison of GTPγS S1P1 and GTPγS S1P3 in Method A (Data shown in Table B). Data was not averaged across different batches of an example compound.

circulating lymphocytes [8] = details: animals and humans; cited from earlier work
[9] = clinical studies, first 24 hours of treatment; cited from earlier work

T2 sequence (P21453 whole entry): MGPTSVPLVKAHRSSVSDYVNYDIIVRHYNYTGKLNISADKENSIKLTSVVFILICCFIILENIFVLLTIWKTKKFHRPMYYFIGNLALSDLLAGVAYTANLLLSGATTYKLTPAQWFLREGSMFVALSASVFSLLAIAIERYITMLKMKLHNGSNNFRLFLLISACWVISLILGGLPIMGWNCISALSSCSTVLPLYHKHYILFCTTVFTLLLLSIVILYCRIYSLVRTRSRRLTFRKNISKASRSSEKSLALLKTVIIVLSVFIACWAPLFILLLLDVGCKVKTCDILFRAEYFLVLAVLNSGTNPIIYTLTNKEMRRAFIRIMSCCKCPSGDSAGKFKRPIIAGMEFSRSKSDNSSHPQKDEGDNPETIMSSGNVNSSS

## O=C(O)C1CN(Cc2ccc(-c3noc(-c4noc(-c5ccccc5)c4C(F)(F)F)n3)cc2)C1 [Example 2, 1-(4-(5-(5-Phenyl-4-(trifluoromethyl)isoxazol-3-yl)-1,2,4-oxadiazol-3-yl)benzyl)azetidine-3-carboxylic acid]
S1P3 [1]
  EC50: 350 nM
S1P3 [2]
  EC50: 3.6 µM
Circulating lymphocytes [3]; 0.03 mg/kg
  % reduction in lymphocytes at 4 hr.: 70%
  % reduction in lymphocytes at 24 hr.: 56%
Circulating lymphocytes [3]; 0.3 mg/kg
  % reduction in lymphocytes at 4 hr.: 80%
  % reduction in lymphocytes at 24 hr.: 79%
Circulating lymphocytes [3]; 1.0 mg/kg
  % reduction in lymphocytes at 4 hr.: 84%
  % reduction in lymphocytes at 24 hr.: 85%
S1P1 [4]; Method A, S1P1/CHO cell membranes
  EC50: 1.7 nM
S1P1 [4]; ratio of GTPγS S1P3 EC50 to GTPγS S1P1 EC50, Method A
  GTPγS S1P3/S1P1 (Method A): 2,100
Circulating lymphocytes [5]; 0.001 mg/kg
  % reduction in lymphocytes at 4 hr.: −26%
  % reduction in lymphocytes at 24 hr.: 17%
Circulating lymphocytes [5]; 0.01 mg/kg
  % reduction in lymphocytes at 4 hr.: −4%
  % reduction in lymphocytes at 24 hr.: 15%
Circulating lymphocytes [5]; 0.1 mg/kg
  % reduction in lymphocytes at 4 hr.: 70%
  % reduction in lymphocytes at 24 hr.: 62%
Circulating lymphocytes [5]; 1.0 mg/kg
  % reduction in lymphocytes at 4 hr.: 83%
  % reduction in lymphocytes at 24 hr.: 84%
S1P1 [6]; Method B SPA, S1P1 transfected CHO cell membranes, NC = a satisfactory dose response curve was not obtained
  EC50: 0.076 nM
S1P1 [6]; ratio of GTPγS S1P3 EC50 to GTPγS S1P1 EC50, Method B
  GTPγS S1P3/S1P1 (Method B): 4,600
S1P1 [7]
  IC50: 0.05 nM

## CCCCCCCCc1ccc(CCC(N)(CO)CO)cc1 [FTY720]
Circulating lymphocytes [8]
  circulating lymphocytes: reduce circulating lymphocytes
[9]
  bradycardia on treatment: results in bradycardia
